According to patent EP4559896A1, “PH-SENSITIVE CATIONIC LIPID AND LIPID NANOPARTICLE” (National University Corporation Hokkaido University, priority 2022, dated 2024):
Blank lines part the entries; values can stand above or below the compound they belong to.

Tests used:
factor VII (F7) = settings: mouse liver; cited from earlier work
[1] = encapsulation rate of lipid nanoparticles (RiboGreen); type: physicochemical; settings: Fluc mRNA-loaded lipid nanoparticles, TOT/DSPC/chol/PEG-DMG=65/15/20/1.5 (mol%)
Method: The encapsulation rate of the lipid nanoparticles was determined by measuring the amount of encapsulated nucleic acid (mRNA) using RiboGreen (manufactured by Life Technologies), which is an RNAintercalator. The amount of mRNA was quantified based on a calibration curve prepared from a dilution series solution of mRNA at a known concentration.
Specifically, 10 mM HEPES buffer (pH 7.4), 10 w/v% Triton X-100, and RiboGreen were mixed at 978.8 µL, 20 µL, and 1.25 µL per 10 wells, respectively, to obtain a Triton(+) buffer. A Triton(-) buffer was obtained in replacing Triton X-100 with 10 mM HEPES buffer (pH 7.4). 100 µL/well of the sample was added to a black 96-well plate for fluorescence measurement, and 100 µL/well of Triton(+) buffer or Triton(-) buffer was added. After the plate was gently shaken on a shaking incubator (SI-300, manufactured by AS ONE) (700 rpm, 30 seconds), the fluorescence intensity of each well was measured using a microplate reader (VARIOSKAN LUX, manufactured by Thermo Fisher Scientific) (wavelength Ex/Em=500 nm/525 nm), and the nucleic acid encapsulation rate (%) was calculated.

[2] = test system: B cells, T cells, NK cells, dendritic cells, and neutrophils; experiment: uptake of DiD-modified lipid nanoparticles by spleen cell types (DiD fluorescence intensity); type: in vivo, mice; settings: Example 37, TOT-5/DSPC/chol/PEG-DMG=65/X/35-X/1.5 (mol%), 1 hour
Method: First, DiD-modified Fluc mRNA-loaded lipid nanoparticles having a composition of TOT-5/DSPC/chol/PEG-DMG=65/X/35-X/1.5 (mol%) (X=3, 5, 10, 15, or 20) were prepared in the same manner as in Example 34, except that the red fluorescent substance DiD was incorporated at 0.5 mol% for DiD modification. The obtained DiD-modified Fluc mRNA-loaded lipid nanoparticles were intravenously administered into the tail vein of BALB/c mice so that the dose of Fluc mRNA was 0.2 mg/kg, the mice were euthanized 1 hour after administration, and the spleen was collected (N=3). As a control, the spleen was also collected from BALB/c mice not administered with lipid nanoparticles.
The spleen cells were stained to distinguish B cells, T cells, NK cells, dendritic cells, and neutrophils. […] After removing the supernatant, the cells were resuspended with 5 mL of cold HBSS(-) buffer, the number of cells was counted, the suspensions were added to a 1.5 mL tube so that 3×10^6 cells were added, and centrifuged at 4°C and 400×g for 5 minutes. […] 6 µL of propidium iodide solution was added to the sample, each cell group was extracted by each surface antigen, and then DiD fluorescence intensity was measured.
DiD-positive cells (cells emitting DiD fluorescence) are cells that have taken up DiD-modified Fluc mRNA-loaded lipid nanoparticles. […]

BALB/c mice = experiment: Fluc activity in tissues of mice administered with Fluc mRNA-loaded lipid nanoparticles; type: in vivo; settings: for Fluc activity, predominant organ (liver or spleen): Example 34, TOT-5/DSPC/chol/PEG-DMG=65/X/35-X/1.5 (mol%), i.v. 0.01 mg/kg Fluc mRNA, 6 hours
Method: Lipid nanoparticles were administered to mice by intravenous injection into the tail vein using a 27G needle. Unless otherwise specified, BALB/c mice (4 to 5 weeks old, female) were used.
First, BALB/c mice (female, 4 weeks old) were intravenously injected with lipid nanoparticles encapsulating Fluc mRNA (Fluc mRNA-loaded lipid nanoparticles) at a dose of 0.01 mg mRNA/kg. Six hours after intravenous injection, the mice were euthanized, each tissue was collected, frozen in liquid nitrogen, and stored at -80°C. The tissues were homogenized in passive lysis buffer (manufactured by Promega) using a bead-type cell disruptor (Micro Smash MS-100R, manufactured by TOMY Seiko). Tissue debris was removed by centrifugation, and the supernatant was collected. Fluc activity in the supernatant was measured using the Luciferase Assay System (E1500, manufactured by Promega) according to the manufacturer's protocol. Luminescence was measured using a luminometer (Luminescencer-PSN, manufactured by ATTO). Protein concentration was determined using a commercially available assay kit (BCA Protein Assay Kit, manufactured by Pierce). Fluc activity was expressed as relative light units (RLU) per mg of protein.
Specifically, first, each lipid nanoparticle was intravenously administered into the tail vein of mice in an amount of 0.2 mg/kg of Fluc mRNA, and 6 hours after administration of the lipid nanoparticles, about 50 mg each of the liver, spleen, lung, heart, brain, and muscle was collected and stored frozen. 500 µL of passive lysis buffer (manufactured by Promega) was added to each tube containing the collected organ. The liver was homogenized at 4000 rpm for 20 seconds twice, the spleen, kidney, lung, and heart were homogenized at 5000 rpm for 20 seconds twice, and the muscle was homogenized at 5000 rpm for 20 seconds four times; then, the homogenate was centrifuged at 13000 rpm at 4°C for 10 minutes, and the supernatant was collected as a sample for measurement. The liver and spleen were diluted 100 times with passive lysis buffer. 50 µL of a measurement sample (tissue supernatant) was mixed with 50 µL of luciferase assay buffer of the Luciferase Assay System (E1500, manufactured by Promega) previously added in a test tube by pipetting, and the amount of luminescence was measured with a luminometer. Protein concentration was determined using a commercially available assay kit (BCA Protein Assay Kit, manufactured by Pierce). Fluc activity was expressed as relative light units (RLU) per mg of protein.

[3] = average particle size and polydispersity index by dynamic light scattering; type: physicochemical; settings: Fluc mRNA-loaded lipid nanoparticles, TOT/DSPC/chol/PEG-DMG=65/15/20/1.5 (mol%)
Method: The average particle size (number average value), ζ-average particle size, and polydispersity index (PdI) of the lipid nanoparticles in PBS(-) (pH 7.4), and the zeta potential in 10 mM HEPES buffer (pH 7.4) were measured using an analyzer "Zetasizer Nano ZS ZEN3600" (manufactured by Malvern) utilizing dynamic light scattering.

[4] = Example 11, TOT-5/DOPE/chol/PEG-DMG=60/15/25/1, i.v. tail vein
[5] = Example 14, TOT-5/DSPC/chol/PEG-DMG=65/15/20/1, i.v. tail vein
[6] = Example 33, TOT/DSPC/chol/PEG-DMG=65/15/20/1.5, control CL4F6/DSPC/chol/PEG-DMG=50/10/40/1.5 (mol%), i.v. tail vein

Compound: CCCCC/C=C\C/C=C\CCCCCCCCOC1(OCCCCCCCC/C=C\C/C=C\CCCCC)CCN(C)CC1 [YSK05]
ED50 in factor VII (F7) knockdown (factor VII (F7)): 0.06 mg siRNA/kg

Compound: CCCCC/C=C\C/C=C\CCCCCCCCC(CCCCCCCC/C=C\C/C=C\CCCCC)OC(=O)CCCN(C)C [DLin-MC3-DMA]
ED50 in factor VII (F7) knockdown (factor VII (F7)): 0.005 mg siRNA/kg

Encapsulation Rate [1]: 88.6%
PdI [3]: 0.161
ζ-Average Particle Size [3]: 102.1 nm
Compound: CCCCCCCC/C=C\CCCCCCCC(=O)OCC(COC(=O)CCCCCCC/C=C\CCCCCCCC)(COC(=O)CCCCCCC/C=C\CCCCCCCC)NC(=O)CCN1CCCCC1 [TOT-5, 2-((oleoyloxy)methyl)-2-(3-(piperidin-1-yl)propanamido)propane-1,3-diyl dioleate]
uptake by spleen cell types (DiD fluorescence intensity) ([2]; X=3, 5, 10, 15, or 20, i.v. 0.2 mg/kg Fluc mRNA): highly taken up by B cells and dendritic cells
improvement of the uptake by B cells by increasing the DSPC content ([2]; X=3 to 20, i.v. 0.2 mg/kg Fluc mRNA): about 10 times
Fluc activity (RLU/mg protein) in the liver and spleen (BALB/c mice; Example 11, TOT-5/DOPE/chol/PEG-DMG=50 to 65/10 to 35/0 to 40/1 (mol%), all compositions, i.v. tail vein): confirmed
Fluc activity (RLU/mg protein) in the liver (BALB/c mice; [4]): high
Fluc activity (RLU/mg protein) in the spleen (BALB/c mice; [4]): not so high
Fluc activity (RLU/mg protein) in the liver and spleen (BALB/c mice; Example 13, TOT/DOPE/chol/PEG-DMG=60/15/25/1.0 (mol%), i.v. tail vein): very high
Fluc activity (RLU/mg protein) in the liver and spleen (BALB/c mice; Example 14, TOT-5/DSPC/chol/PEG-DMG=55 to 70/5 to 30/10 to 35/1 (mol%), all compositions, i.v. tail vein): confirmed
Fluc activity (RLU/mg protein) in the liver (BALB/c mice; Example 14, TOT-5/DSPC/chol/PEG-DMG=65/5/30/1, i.v. tail vein): very high
Fluc activity (RLU/mg protein) in the liver (BALB/c mice; [5]): not so high
Fluc activity (RLU/mg protein) in the spleen (BALB/c mice; [5]): high
luciferase activity in the spleen compared with control mice (CL4F6-containing lipid nanoparticles) (BALB/c mice; [6]): higher
Fluc activity, predominant organ (liver or spleen) (BALB/c mice; DSPC content 10 mol% or more): predominantly in the spleen
Fluc activity, predominant organ (liver or spleen) (BALB/c mice; DSPC content less than 10 mol%): predominantly in the liver

Encapsulation Rate [1]: 92.3%
PdI [3]: 0.347
ζ-Average Particle Size [3]: 166.2 nm
Compound: CCCCCCCC/C=C\CCCCCCCC(=O)OCC(COC(=O)CCCCCCC/C=C\CCCCCCCC)(COC(=O)CCCCCCC/C=C\CCCCCCCC)NC(=O)CCCN(C)C [TOT-2, 2-(4-(dimethylamino)butanamido)-2-((oleoyloxy)methyl)propane-1,3-diyl dioleate]
Fluc activity (RLU/mg protein) in the liver (BALB/c mice; Example 16, TOT/DSPC/chol/PEG-DMG=65/15/20/1.5 (mol%), i.v. tail vein): confirmed in the liver in all the mice except for those administered with Fluc mRNA-loaded lipid nanoparticles using TOT-2
luciferase activity in the lung compared with control mice (CL4F6-containing lipid nanoparticles) (BALB/c mice; [6]): higher
